Experiments:
Assay in all cases: Glasshouse herbicide test, pre- and post-emergence, percentage damage
Assay type in all cases: in vivo
Solanum nigrum (SOLNI) = details: 1000 g/h, evaluated after 13 days, five point scale; for percentage damage caused to the plant, SOLNI, POST Application: post-emergence; for percentage damage caused to the plant, SOLNI, PRE Application: pre-emergence
Protocol: (§1) Seeds of a variety of test species are sown in standard soil in pots (Alopecurus myosuroides (ALOMY), Setaria faberi (SETFA), Stellaria media (STEME), Echinochloa crus-galli (ECHCG), Solanum nigrum (SOLNI), Amaranthus retoflexus (AMARE), Ipomoea hederacea (IPOHE), Lolium perenne (LOLPE). After cultivation for one day (pre-emergence) or after 8 days cultivation (post-emergence) under controlled conditions in a glasshouse (at 24/16° C., day/night; 14 hours light; 65% humidity), the plants are sprayed with an aqueous spray solution derived from the formulation of the technical active ingredient in acetone/water (50:50) solution containing 0.5% Tween 20 (polyoxyethelyene sorbitan monolaurate, CAS RN 9005-64-5). Compounds ae applied at 1000 g/h. The test plants are then grown in a glasshouse under controlled conditions in a glasshouse (at 24/16° C., day/night; 14 hours light; 65% humidity) and watered twice daily. After 13 days for pre and post-emergence, the test is evaluated for the percentage damage caused to the plant. The biological activities are shown in the following table on a five point scale (5=80-100%; 4=60-79%; 3=40-59%; 2=20-39%; 1=0-19%).

[1] = test system: Ipomoea hederacea (IPOHE); details: 1000 g/h, evaluated after 13 days, five point scale; for percentage damage caused to the plant, IPOHE, POST Application: post-emergence; for percentage damage caused to the plant, IPOHE, PRE Application: pre-emergence
Protocol: as §1

[2] = test system: Alopecurus myosuroides (ALOMY); details: 1000 g/h, evaluated after 13 days, five point scale; for percentage damage caused to the plant, ALOMY, POST Application: post-emergence; for percentage damage caused to the plant, ALOMY, PRE Application: pre-emergence
Protocol: as §1

[3] = test system: Amaranthus retoflexus (AMARE); details: 1000 g/h, evaluated after 13 days, five point scale (Table B1); for percentage damage caused to the plant, AMARE, POST Application: post-emergence; for percentage damage caused to the plant, AMARE, PRE Application: pre-emergence
Protocol: as §1

[4] = test system: Echinochloa crus-galli (ECHCG); details: 1000 g/h, evaluated after 13 days, five point scale; for percentage damage caused to the plant, ECHCG, POST Application: post-emergence; for percentage damage caused to the plant, ECHCG, PRE Application: pre-emergence
Protocol: as §1

Setaria faberi (SETFA) = details: 1000 g/h, evaluated after 13 days, five point scale; for percentage damage caused to the plant, SETFA, POST Application: post-emergence; for percentage damage caused to the plant, SETFA, PRE Application: pre-emergence
Protocol: as §1

SMILES | percentage damage caused to the plant, SOLNI, POST Application (Solanum nigrum (SOLNI)) | percentage damage caused to the plant, SOLNI, PRE Application (Solanum nigrum (SOLNI)) | percentage damage caused to the plant, IPOHE, POST Application [1] | percentage damage caused to the plant, IPOHE, PRE Application [1] | percentage damage caused to the plant, ALOMY, POST Application [2] | percentage damage caused to the plant, ALOMY, PRE Application [2] | percentage damage caused to the plant, AMARE, POST Application [3] | percentage damage caused to the plant, AMARE, PRE Application [3] | percentage damage caused to the plant, ECHCG, POST Application [4] | percentage damage caused to the plant, ECHCG, PRE Application [4] | percentage damage caused to the plant, SETFA, POST Application (Setaria faberi (SETFA)) | percentage damage caused to the plant, SETFA, PRE Application (Setaria faberi (SETFA))
Cn1nnnc1NC(=O)c1ccc(S(C)(=O)=O)c(COCC(F)(F)F)c1Cl [Compound 1.001] | 5 (5=80-100%) | 5 (5=80-100%) | 5 (5=80-100%) | 5 (5=80-100%) | 5 (5=80-100%) | 5 (5=80-100%) | 5 (5=80-100%) | 5 (5=80-100%) | 5 (5=80-100%) | 5 (5=80-100%) | 5 (5=80-100%) | 5 (5=80-100%)
Cc1ccc([N+](=O)[O-])c(C(=O)Nc2nnnn2C)c1 [Compound 1.013] | 5 (5=80-100%) | 5 (5=80-100%) | 5 (5=80-100%) | 4 (4=60-79%) | 2 (2=20-39%) | 2 (2=20-39%) | 4 (4=60-79%) | 5 (5=80-100%) | 1 (1=0-19%) | 1 (1=0-19%) | 1 (1=0-19%) | 2 (2=20-39%)
CCCn1nnnc1NC(=O)c1cc(Cl)ccc1Cl [Compound 1.004] | 5 (5=80-100%) | 4 (4=60-79%) | 5 (5=80-100%) | 1 (1=0-19%) | 1 (1=0-19%) | 1 (1=0-19%) | 4 (4=60-79%) | 5 (5=80-100%) | 1 (1=0-19%) | 1 (1=0-19%) | 1 (1=0-19%) | 1 (1=0-19%)
Cn1nnnc1NC(=O)c1cc(F)c(F)cc1[N+](=O)[O-] [Compound 1.011] | 2 (2=20-39%) | 1 (1=0-19%) | 2 (2=20-39%) | 1 (1=0-19%) | 1 (1=0-19%) | 1 (1=0-19%) | 3 (3=40-59%) | 5 (5=80-100%) | 2 (2=20-39%) | 1 (1=0-19%) | 1 (1=0-19%) | 1 (1=0-19%)
Cn1nnnc1NC(=O)c1ccc(C(F)(F)F)cc1S(C)(=O)=O [Compound 1.003] | 5 (5=80-100%) | 5 (5=80-100%) | 5 (5=80-100%) | 5 (5=80-100%) | 5 (5=80-100%) | 5 (5=80-100%) | 5 (5=80-100%) | 5 (5=80-100%) | 5 (5=80-100%) | 5 (5=80-100%) | 5 (5=80-100%) | 5 (5=80-100%)
